Data on two compounds can be found in patent publication US10952952B2, “Skin lightening composition” (Conopco, Inc., priority 2015, dated 2021).

What all share (assay type): cell-based
Experiment [1] deals with human primary melanocytes and HaCat keratinocytes. Nature of the experiment: Melanosome Transfer Assay (MTA), Example 3. The settings on record: 72 hours co-culture; for % Inhibition in melanosome transfer: 15 mM; for inhibition at 5000 µM / inhibition at 10000 µM: Homo sapiens, HaCaT; for inhibition at 5000 µM: 5 mM; for inhibition at 10000 µM: 10 mM. How it is done:
1.3×10^4 cells of human primary melanocytes (C-202-5C, Lonza) prepared in culture medium (MGM:KGM=1:1) and 2.6×10^4 HaCat keratinocytes prepared in culture medium (MGM:KGM=1:1) were mixed together and plated in a 48 well plate and incubated in an tissue culture tissue culture incubator (Thermo Scientific, Model 3111) at 37° C. with 5% CO2 atmosphere. After 4 hours of incubation, co-cultures were treated with the samples and again incubated for 72 hours in the same incubator under the same conditions. After culturing for required period (72 hours), the cells were prepared for flow cytometry analysis by following the procedure as set out below: • 1. Cells were isolated from 48 wells plate into a V-bottom plate (Torson, 941396) with 200 μl of trypsin EDTA buffer and the trypsin activity was neutralized with 200 μl of trypsin neutralizer and pelleted down to 350 g using a cold centrifuge (Plasto Crafts, Model no: Roat 4R-V/FM). • 2. To the pellet, 100 μl of 1% para-formaldehyde was added and incubated for 10 minutes on ice. • 3. Cells were then centrifuged (1000 G) with 100 μl of phosphate buffer saline (PBS) for 10 minutes and the pellet was used for staining with a solution as stated in below step 4. The PBS was prepared by adding 4 g sodium chloride, 0.1 g potassium chloride, 0.58 g disodium hydrogen phosphate and 0.1 g potassium dihydrogen phosphate into 500 ml of autoclaved Mili-Q water.
(§1) FACS buffer (Florescence activated cell sorter) was prepared by adding 0.1% Saponin and >0.05% (0.05% wt/volume) Fetal Bovine serum in PBS mixed with Alexa 488 conjugated goat anti-Trp1 antibody (TRP1 Alexa 488 (TRP1, tyrosinase related protein is an specific melanosome marker protein, Santacruz, catalog No: sc-10443) (1 μL/100 μL) and anti-pan cytokeratin antibody (pan cytokeratin, cytokeratin is a specific marker for keratinocytes) PE, Santacruz, catalog No: sc-8018) (1 μL/100 μL). The above mention FACS buffer was added to the pellet in each well (100 μL/well) and incubated for 60 minutes on ice. • 4. The cells were then washed with PBS and centrifuged down to ˜1000 G using a cold centrifuge (Plasto crafts, Roat 4R-V/FM) • 5. The cell pellets were suspended in PBS and transferred to round bottom 96 wells plate and analyzed by flow cytometry (BD Biosciences, Model—BD Facs calibur with BD HTS) Calculation of Melanosome Transfer (% Transfer):
Keratinocytes containing transferred melanosomes were detected by flow cytometry analysis.
The % transfer in untreated cells (NO active) was considered as 100%. In comparison to the untreated cells, the percentage transfer of the treated cell samples were calculated.

For experiment [2], the system named is Human primary melanocytes. Put plainly: Melanin Content Assay (MCA). The following applies: for inhibition at 5000 µM / inhibition at 10000 µM: Homo sapiens, Melanocyte, 72 hours, vs untreated cells, read-out: % Inhibition in Melanin Synthesis (Mean ± SD); for inhibition at 5000 µM: 5 mM; for inhibition at 10000 µM: 10 mM. How it is done:
Human primary melanocytes were grown in melanocytes growth medium (MGM) with human melanocyte growth supplement. 500 μL/well (5×10^4 cells/well) of this solution was plated in a 24 wells plate and incubated in an incubator (Thermo Scientific, Model 3111) at 37° C. with 5% CO2 atmosphere. After 24 hours of incubation, cell cultures were treated with the lead actives dissolved in water. The control was cells treated with the vehicle (water) alone. The cells were again incubated for 72 hours in an incubator (Thermo Scientific, Model 3111; conditions: 5% CO2, at 37° C.). At the end of the incubation the culture medium was replaced with 120μl/well of MCA reagent ([…] DMSO in 1N NaOH) and incubated for 1 hour at 60° C. in a shaker incubator. The supernatant was then transferred to a 384 well plate. The absorbance was measured spectrophotometric at 405 nm with a micro plate reader (GEnios Pro, Tecan). The spectrophotometric OD at 405 nm for untreated cells (NO active) was considered as 100% melanin content. In comparison to the untreated cells, the percentage inhibition of the treated cell samples were calculated.

Experiment [3] has as its system human primary melanocytes and HaCat keratinocytes. Put plainly: Melanosome Transfer Assay (MTA), Example 2. The settings on record: 5 mM, 72 hours co-culture, read-out: % inhibition in keratinocytes containing melanosome (Mean ± SD). The method, then: 1.3×10^4 cells of human primary melanocytes (C-202-5C, Lonza) prepared in culture medium (MGM:KGM=1:1) and 2.6×10^4 HaCat keratinocytes prepared in culture medium (MGM:KGM=1:1) were mixed together and plated in a 48 well plate and incubated in an tissue culture incubator (Thermo Scientific, Model 3111) at 37° C. with 5% CO2 atmosphere. After 4 hours of incubation, co-cultures were treated (added) with the samples and again incubated for 72 hours in the same incubator under the same conditions. After culturing for required period (72 hours), the cells were prepared for flow cytometry analysis by following the procedure as set out below: • 1. […]
as §1, with “FACS” for “FACS buffer”, “The above mention FACS buffer was added to the pellet in each well (100 μL/well) and incubated for 60 minutes on ice. • 4. The cells were then washed with PBS and centrifuged down to ˜1000 G using a cold centrifuge (Plasto crafts, Roat 4R-V/FM) • 5.” left out, “analysed” for “analyzed”, “Facscalibur” for “Facs calibur”, “Transfer): […]” for “Transfer):”

Broadly, the inhibition is the change of the read-out against control, counted positive when it falls. For the compound `NC(=O)c1ccccn1` [Picolinamide, pyridine 2-carboxamide], in experiment [1], the “% Inhibition in melanosome transfer” value is listed as “cell death”, the inhibition at 5000 µM was -8% and the inhibition at 10000 µM is 18%. In experiment [2], the inhibition at 5000 µM turned out to be 14 ± 0.9% and the inhibition at 10000 µM amounted to 23 ± 3.3%.

As to `NC(=O)c1cccnc1` [Niacinamide, pyridine-3-carboxamide], the inhibition at 5000 µM in experiment [3] stood at 15.1 ± 0.4%. In experiment [1], the “% Inhibition in melanosome transfer” value is “cell death”, the inhibition at 5000 µM is 16.5% and the inhibition at 10000 µM was determined as 25%. In addition, in experiment [2], the inhibition at 5000 µM was 3 ± 0.4% and the inhibition at 10000 µM came to 8 ± 2.3%. In addition, in experiment [2] (niacinamide by itself, at 5 mM and 10 mM), the “reduction of melanin content in primary human melanocytes” value is recorded as “modest reduction”.
